30 compounds from ChEMBL document CHEMBL5252519, “Design strategies, structure activity relationship and mechanistic insights for purines as kinase inhibitors” (Eur J Med Chem, 2016) can be followed below.

In data set [1] the target is Phosphatidylinositol 4,5-bisphosphate 3-kinase catalytic subunit alpha isoform (Homo sapiens, UniProt P42336). Briefly: Inhibition of PI3K-p110alpha (unknown origin) incubated for 30 mins by fluorescence polarization assay.
The target in another data set is Janus Kinase (JAK) (Homo sapiens, UniProt P52333+P23458+O60674+P29597). Put plainly: Inhibition of JAK (unknown origin). It counts as protein assay.
For data set [2], the target named is Serine/threonine-protein kinase mTOR (Homo sapiens, UniProt P42345). Briefly: Inhibition of mTOR (unknown origin).
Data set [3] addresses Tyrosine-protein kinase SYK (Homo sapiens, UniProt P43405). Briefly: Inhibition of SYK (unknown origin) using biotinylated EDPDYEWPSA as substrate incubated for 30 mins in presence of 33P-ATP by Scintillation Proximity Assay. (In a scintillation proximity assay essentially only radioactivity close to the scintillant gives light.)
The target in data set [4] is T1, Phosphatidylinositol 4,5-bisphosphate 3-kinase catalytic subunit delta isoform (Homo sapiens, UniProt O00329).
T1 sequence (O00329 whole entry): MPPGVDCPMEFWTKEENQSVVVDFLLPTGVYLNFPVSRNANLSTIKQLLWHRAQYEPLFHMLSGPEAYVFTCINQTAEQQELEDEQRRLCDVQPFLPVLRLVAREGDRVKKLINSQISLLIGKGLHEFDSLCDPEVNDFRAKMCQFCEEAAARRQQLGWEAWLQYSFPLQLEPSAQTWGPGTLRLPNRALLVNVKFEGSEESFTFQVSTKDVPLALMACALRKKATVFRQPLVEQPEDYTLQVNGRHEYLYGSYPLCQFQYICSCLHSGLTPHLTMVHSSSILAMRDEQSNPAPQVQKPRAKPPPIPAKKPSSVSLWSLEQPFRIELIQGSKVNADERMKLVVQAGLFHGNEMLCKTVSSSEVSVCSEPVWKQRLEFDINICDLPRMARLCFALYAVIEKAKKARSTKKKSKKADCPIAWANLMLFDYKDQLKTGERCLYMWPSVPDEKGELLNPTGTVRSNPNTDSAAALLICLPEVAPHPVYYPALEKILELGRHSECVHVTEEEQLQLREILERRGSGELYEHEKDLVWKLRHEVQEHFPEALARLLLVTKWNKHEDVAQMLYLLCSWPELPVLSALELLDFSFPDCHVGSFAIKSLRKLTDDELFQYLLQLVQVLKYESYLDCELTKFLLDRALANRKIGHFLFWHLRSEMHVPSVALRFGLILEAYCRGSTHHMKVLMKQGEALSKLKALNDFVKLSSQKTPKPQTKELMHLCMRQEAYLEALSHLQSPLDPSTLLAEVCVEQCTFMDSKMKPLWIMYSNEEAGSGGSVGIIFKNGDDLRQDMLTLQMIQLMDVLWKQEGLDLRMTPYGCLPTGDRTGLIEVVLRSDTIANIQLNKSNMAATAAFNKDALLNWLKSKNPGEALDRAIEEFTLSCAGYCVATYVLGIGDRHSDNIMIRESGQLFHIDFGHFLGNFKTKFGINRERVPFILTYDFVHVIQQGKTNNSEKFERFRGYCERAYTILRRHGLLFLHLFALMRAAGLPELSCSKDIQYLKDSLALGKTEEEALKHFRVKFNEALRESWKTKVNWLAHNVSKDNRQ
Put plainly: Inhibition of PI3K-delta (unknown origin).

The target in a further data set is CDK9/Cyclin T (Homo sapiens, UniProt P50750). Briefly: Inhibition of CDK9/Cyclin T (unknown origin) using (YSPTSPS)3 peptide as substrate incubated for 30 mins in presence of gamma[33P]ATP by digital imaging analysis. It counts as protein-complex assay.
Data set [5] concerns the target Cyclin-dependent kinase 2/cyclin A (Homo sapiens, UniProt P24941). Put plainly: Inhibition of human CDK2/cyclinA using histone H1 as substrate incubated for 30 mins in presence of gamma[32P]ATP by phosphoimaging analysis. It is filed as protein-complex assay.
Another data set deals with MCF7. Put plainly: Cytotoxicity against human MCF7 cells incubated for 48 hrs by SRB assay. It counts as functional, cell-based. The settings on record: MCF7, 48 h. (In general: In SRB staining, fixed cells bind dye roughly in proportion to their protein.)
Data set [6] deals with Cyclin-dependent kinase 2/cyclin E (Homo sapiens, UniProt P24941). Briefly: Inhibition of CDK2/Cyclin E (unknown origin) using histone as substrate incubated for 30 mins in presence of gamma[33P]ATP by digital imaging analysis. It counts as protein-complex assay.
The nature of data set [7]: Antiproliferative activity against HUVEC cells assessed as cell growth inhibition measured after 72 hrs by crystal violet staining based analysis. It counts as toxicity. Particulars: human.
In data set [8] the target is T1, Phosphatidylinositol 4,5-bisphosphate 3-kinase catalytic subunit delta isoform. Put plainly: Inhibition of human PI3K-delta using PIP2 as substrate in presence of gamma[32P]ATP.
A further data set has as its system HMEC. Put plainly: Inhibition of cell migration in HMECs at 10 uM measured after 16 hrs by fluorescence based assay. The settings on record: Homo sapiens. It is filed as functional.

Chain of CDK9/Cyclin T (O60563 whole entry): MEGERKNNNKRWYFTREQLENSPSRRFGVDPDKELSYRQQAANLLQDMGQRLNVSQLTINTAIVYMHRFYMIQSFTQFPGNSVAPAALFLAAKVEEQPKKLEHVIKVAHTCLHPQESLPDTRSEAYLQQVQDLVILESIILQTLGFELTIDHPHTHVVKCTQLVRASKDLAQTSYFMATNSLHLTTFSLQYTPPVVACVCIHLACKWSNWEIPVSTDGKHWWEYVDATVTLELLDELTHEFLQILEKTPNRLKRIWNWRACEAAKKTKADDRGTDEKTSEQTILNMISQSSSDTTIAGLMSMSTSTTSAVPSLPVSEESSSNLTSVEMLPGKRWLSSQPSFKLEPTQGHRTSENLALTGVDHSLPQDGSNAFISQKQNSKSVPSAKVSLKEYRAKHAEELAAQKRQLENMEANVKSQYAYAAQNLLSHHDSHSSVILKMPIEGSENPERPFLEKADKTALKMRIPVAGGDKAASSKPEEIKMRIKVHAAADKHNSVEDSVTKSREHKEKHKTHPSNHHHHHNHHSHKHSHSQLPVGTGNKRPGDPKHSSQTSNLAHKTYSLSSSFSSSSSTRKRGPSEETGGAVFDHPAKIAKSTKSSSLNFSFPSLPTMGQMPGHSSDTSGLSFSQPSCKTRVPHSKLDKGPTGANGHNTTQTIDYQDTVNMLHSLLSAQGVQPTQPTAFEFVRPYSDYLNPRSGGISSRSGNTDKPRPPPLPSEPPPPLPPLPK
Chain of CDK9/Cyclin T (P50750 whole entry): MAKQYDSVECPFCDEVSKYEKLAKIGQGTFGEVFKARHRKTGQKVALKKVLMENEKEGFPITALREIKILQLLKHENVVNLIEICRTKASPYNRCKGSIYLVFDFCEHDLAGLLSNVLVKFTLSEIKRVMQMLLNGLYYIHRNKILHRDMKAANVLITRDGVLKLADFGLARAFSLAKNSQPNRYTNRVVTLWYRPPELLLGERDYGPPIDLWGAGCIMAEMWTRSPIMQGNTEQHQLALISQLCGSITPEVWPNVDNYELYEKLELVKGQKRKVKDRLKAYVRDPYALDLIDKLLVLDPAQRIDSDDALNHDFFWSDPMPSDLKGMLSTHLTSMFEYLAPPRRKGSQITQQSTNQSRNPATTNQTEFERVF
Chain of CDK9/Cyclin T (O60583 whole entry, further chain): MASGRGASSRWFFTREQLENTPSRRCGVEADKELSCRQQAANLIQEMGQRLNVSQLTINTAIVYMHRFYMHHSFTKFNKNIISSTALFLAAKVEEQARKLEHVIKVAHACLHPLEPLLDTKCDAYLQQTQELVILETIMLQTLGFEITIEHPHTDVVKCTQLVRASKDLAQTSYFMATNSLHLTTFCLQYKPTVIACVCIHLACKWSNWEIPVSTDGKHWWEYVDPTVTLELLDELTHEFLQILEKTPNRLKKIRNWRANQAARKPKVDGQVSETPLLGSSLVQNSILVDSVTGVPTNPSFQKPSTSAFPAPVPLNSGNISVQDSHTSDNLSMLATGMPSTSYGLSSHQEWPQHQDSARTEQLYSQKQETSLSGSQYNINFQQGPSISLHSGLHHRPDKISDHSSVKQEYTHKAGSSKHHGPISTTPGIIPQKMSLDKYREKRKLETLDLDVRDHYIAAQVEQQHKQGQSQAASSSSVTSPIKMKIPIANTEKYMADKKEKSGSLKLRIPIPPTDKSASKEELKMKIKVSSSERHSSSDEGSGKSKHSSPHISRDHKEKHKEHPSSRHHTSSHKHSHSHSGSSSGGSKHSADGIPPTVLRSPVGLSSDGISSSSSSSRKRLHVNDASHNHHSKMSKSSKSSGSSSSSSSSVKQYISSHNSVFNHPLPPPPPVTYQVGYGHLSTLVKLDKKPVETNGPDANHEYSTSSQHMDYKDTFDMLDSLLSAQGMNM
Chain of Phosphatidylinositol 4,5-bisphosphate 3-kinase catalytic subunit alpha isoform (P42336 whole entry, canonical isoform): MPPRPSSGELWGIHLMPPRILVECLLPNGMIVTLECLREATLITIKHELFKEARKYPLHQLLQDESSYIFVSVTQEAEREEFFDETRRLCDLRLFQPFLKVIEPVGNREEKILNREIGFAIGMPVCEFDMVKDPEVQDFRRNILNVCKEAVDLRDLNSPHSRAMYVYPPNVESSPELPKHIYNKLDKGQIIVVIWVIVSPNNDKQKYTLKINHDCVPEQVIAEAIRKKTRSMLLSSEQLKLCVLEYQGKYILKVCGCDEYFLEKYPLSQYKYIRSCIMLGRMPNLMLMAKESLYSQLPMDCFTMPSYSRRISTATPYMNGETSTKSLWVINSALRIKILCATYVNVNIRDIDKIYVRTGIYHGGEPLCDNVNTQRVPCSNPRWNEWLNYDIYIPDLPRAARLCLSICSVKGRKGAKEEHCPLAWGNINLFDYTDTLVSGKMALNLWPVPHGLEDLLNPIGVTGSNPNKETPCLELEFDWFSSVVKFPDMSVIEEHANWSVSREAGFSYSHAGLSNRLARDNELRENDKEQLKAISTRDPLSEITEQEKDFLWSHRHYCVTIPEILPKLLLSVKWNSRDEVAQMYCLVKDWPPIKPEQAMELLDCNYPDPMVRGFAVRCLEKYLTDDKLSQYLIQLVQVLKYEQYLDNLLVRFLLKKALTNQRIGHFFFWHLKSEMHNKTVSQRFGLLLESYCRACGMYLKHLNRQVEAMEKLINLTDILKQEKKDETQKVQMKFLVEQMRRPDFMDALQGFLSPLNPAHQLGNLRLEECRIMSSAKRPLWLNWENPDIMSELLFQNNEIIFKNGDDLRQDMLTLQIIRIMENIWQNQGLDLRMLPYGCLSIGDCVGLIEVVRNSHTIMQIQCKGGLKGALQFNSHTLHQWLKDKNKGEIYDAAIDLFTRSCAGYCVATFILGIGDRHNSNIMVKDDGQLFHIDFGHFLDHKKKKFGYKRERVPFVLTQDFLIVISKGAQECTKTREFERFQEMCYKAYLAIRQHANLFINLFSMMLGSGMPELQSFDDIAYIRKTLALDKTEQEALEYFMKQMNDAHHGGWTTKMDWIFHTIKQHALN

Broadly, the IC50 is the point on the concentration scale where inhibition reaches its midpoint. Consider `CC(C)(C)c1nc2c(N3CCOCC3)nc(-c3cccc4[nH]ccc34)nc2n1CCO`, for which the IC50 in [1] was below 10 nM.

`COc1cc(Nc2nc(NC3C4C=CC(C4)C3C(N)=O)c3nc[nH]c3n2)cc(OC)c1OC` (centres undefined) came in with a concentration for half-maximal inhibition (IC50) against Janus Kinase (JAK) below 1 nM.

On to `O=C(Nc1ccc(-c2nc(C3=CCOCC3)c3cnn(CC(F)(F)F)c3n2)cc1)Nc1cccnc1`, for which, in data set [2], the IC50 worked out at 2.4 nM.

For the compound `C/C=N/Nc1ccc(Nc2nc(NCC)c3nc[nH]c3n2)cc1`, the IC50 in data set [3] is 5 nM.

For the compound `CS(=O)(=O)N1CCN(CCn2cnc3c(-n4c(C(F)F)nc5ccccc54)nc(N4CCOCC4)nc32)CC1`, in data set [4], the IC50 is below 30 nM.

The compound `OCCn1cnc2c(-c3cn[nH]c3)nc(N3CCOCC3)nc21` displayed an IC50 in [4] below 30 nM.

`CC(C)Nc1nc(Nc2ccc(S(=O)(=O)N(C)C)cc2)nc2[nH]cnc12`: the IC50 in data set [3] was 5 nM.

Regarding `CCC(CO)Nc1nc(NCc2cc(C)ccc2O)c2ncn(C(C)C)c2n1` (centres undefined), the IC50 on CDK9/Cyclin T was 6 nM.

Consider `CC(C)[C@H](CO)Nc1nc(Nc2ccc(Cl)c(N)c2)c2ncn(C(C)C)c2n1`, for which the IC50 in data set [5] was below 50 nM.

Turning to `NC(=O)C1C2C=CC(C2)C1Nc1nc(Nc2cccc(S(N)(=O)=O)c2)nc2[nH]cnc12` (centres undefined), at Janus Kinase (JAK), the IC50 is listed as below 1 nM.

`Cc1nn(-c2ccccc2)c2ncn(N)c(=O)c12` gave an IC50 in the data set on MCF7 of 89200 nM.

In the data set with MCF7, `CC(=O)N1N=C(c2ccc(Nc3ncnc4c3c(C)nn4-c3ccccc3)cc2)CC1c1ccc(Cl)cc1` (centres undefined) displayed a half-inhibitory concentration (IC50) of 14900 nM.

Consider `COc1cccc(CNc2nc(NC3CCC(N)CC3)nc3c2ncn3C(C)C)c1O` (centres undefined), for which the figures for the IC50 (at CDK9/Cyclin T; in [6]) were 9 nM and 20 nM, respectively.

The EC50 is the concentration at which the effect is half-maximal. For the compound `CC[C@@H](CO)Nc1nc(NCc2ccccc2O)c2ncn(C(C)C)c2n1`, the EC50 at 72 h in data set [7] worked out at 1590 nM.

Consider `c1nc2c(NC3CC4CCC3C4)nc(Nc3ccc(N4CCCCC4)cc3)nc2[nH]1` (centres undefined), for which the IC50 against Janus Kinase (JAK) was below 1 nM.

On to `CC[C@H](Nc1ncnc2[nH]cnc12)c1nc2cccc(Cl)c2c(=O)n1-c1cc(F)cc(F)c1`, for which, in data set [8], the IC50 came to 45 nM.

With `CC(C)C(CO)Nc1nc(Nc2cccc(Cl)c2)c2ncn(C(C)C)c2n1` (centres undefined), the IC50 in [5] is below 50 nM.

`CC(C)[C@H](CO)Nc1nc(Nc2ccc(Cl)c(C(=O)O)c2)c2ncn(C(C)C)c2n1`: the IC50 in data set [5] was below 50 nM.

On to `CCC(Nc1ncnc2[nH]cnc12)c1nc2cccc(C)c2c(=O)n1-c1cc(F)cc(F)c1` (centres undefined), for which, in data set [8], the IC50 came out at 12 nM.

`COc1cccc(CNc2nc(NC3CCCCC3N)nc3c2ncn3C(C)C)c1O` (centres undefined): the half-inhibitory concentration (IC50) at CDK9/Cyclin T is 7 nM.

As a reminder, the inhibition is the relative decrease from the control value, in per cent. Take `CC[C@@H](CO)Nc1nc(NCc2cccc(OC)c2O)c2ncn(C(C)C)c2n1`: the EC50 at 72 h in [7] was determined as 2850 nM. Further, in the data set with HMEC, testing at 10 µM gave an inhibition of 14%.

In data set [1], `Cc1nc(N)ncc1-c1nc(N2CCOCC2)c2nc(C(C)(C)C)n(CCO)c2n1` gave an IC50 below 10 nM.

`CC(C)(C)Nc1nc(Nc2ccc(CC(=O)O)cc2)nc2[nH]cnc12`: in data set [3], the IC50 worked out at 5 nM.

As for `CC(C)n1cnc2c(NCc3cc(F)ccc3O)nc(NC3CCC(N)CC3)nc21` (centres undefined), the figures for the IC50 (at CDK9/Cyclin T; in data set [6]) were 8 nM and 20 nM, respectively.

As to `Cc1nn(-c2ccccc2)c2ncnc(Nc3ccc(C(=O)N4CCOCC4)cc3)c12`, in the data set with MCF7, it took 14900 nM to reach half-maximal inhibition (IC50).

With `NC(=O)[C@@H]1[C@H](Nc2nc(Nc3cccc(S(N)(=O)=O)c3)nc3[nH]cnc23)[C@H]2C=C[C@@H]1C2`, at Janus Kinase (JAK), the IC50 is listed as below 1 nM.

In the case of `CCC(Nc1ncnc2[nH]cnc12)c1nc2cccc(Cl)c2c(=O)n1-c1c(F)cccc1F` (centres undefined), the IC50 in data set [8] turned out to be 26 nM.

In the case of `CC(C)Oc1cccc(Nc2nc(NC3C4C=CC(C4)C3C(N)=O)c3nc[nH]c3n2)c1` (centres undefined), on Janus Kinase (JAK), the IC50 is on record as below 1 nM.

On to `CC(C)[C@H](CO)Nc1nc(Nc2cccc(Cl)c2)c2ncn(C(C)C)c2n1` [PURVALANOLA], for which the IC50 in data set [5] was below 50 nM.

`CC[C@H](CO)Nc1nc(NCc2cccc(OC)c2O)c2ncn(C(C)C)c2n1`: in data set [7], the EC50 at 72 h was 7120 nM. Also, in the data set on HMEC, the inhibition at 10 µM amounted to 54%.
